What was measured:
Assay type in all cases: in vivo
[1] = system: blackgrass (Alopecurus myosuroides); experiment: Test C preemergence; details: Alopecurus myosuroides, pre-emergence, 336 h, scale 0 to 100, read-out: Plant response rating, Blackgrass
Method in brief: (§1)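 Greenhouse test, preemergence on seeded soil or postemergence on 1- to 4-leaf plants. Response is a visual 0-100 rating versus controls, taken 13-15 days after treatment.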

[2] = system: yellow nutsedge (Cyperus esculentus); experiment: Test C preemergence; details: Cyperus, pre-emergence, 336 h, scale 0 to 100, read-out: Plant response rating, Nutsedge, Yellow
Method in brief: as §1

[3] = system: oilseed rape (Brassica napus); experiment: Test C preemergence; details: Brassica napus, pre-emergence, scale 0 to 100, read-out: Plant response rating, Oilseed Rape
Method in brief: as §1

[4] = system: barnyardgrass (Echinochloa crus-galli); experiment: Test C postemergence; details: Echinochloa crus-galli, post-emergence, Postemergence, scale 0 to 100, read-out: Plant response rating, Barnyardgrass
Method in brief: as §1

[5] = system: large (Lg) crabgrass (Digitaria sanguinalis); experiment: Test C postemergence; details: Digitaria sanguinalis, post-emergence, 336 h, Postemergence, scale 0 to 100, read-out: Plant response rating, Crabgrass, Large
Method in brief: as §1

[6] = system: blackgrass (Alopecurus myosuroides); experiment: Test C postemergence; details: Alopecurus myosuroides, post-emergence, 336 h, Postemergence, scale 0 to 100, read-out: Plant response rating, Blackgrass
Method in brief: as §1

[7] = system: chickweed (common chickweed, Stellaria media); experiment: Test C postemergence; details: Stellaria media, post-emergence, Postemergence, scale 0 to 100, read-out: Plant response rating, Chickweed
Method in brief: as §1

[8] = system: lambsquarters (Chenopodium album); experiment: Test C postemergence; details: Chenopodium album, post-emergence, 336 h, Postemergence, scale 0 to 100, read-out: Plant response rating, Lambsquarters
Method in brief: as §1

corn (Zea mays) = experiment: Test C postemergence; details: Zea mays, post-emergence, 336 h, Postemergence, scale 0 to 100
Method in brief: as §1

kochia (Kochia scoparia) = experiment: Test C postemergence; details: Bassia scoparia, post-emergence, Postemergence, scale 0 to 100, read-out: Plant response rating, Kochia
Method in brief: as §1

[9] = system: ragweed (common ragweed, Ambrosia elatior); experiment: Test C postemergence; details: Ambrosia artemisiifolia, post-emergence, 336 h, Postemergence, scale 0 to 100, read-out: Plant response rating, Ragweed
Method in brief: as §1

wild oat (Avena fatua) = experiment: Test C postemergence; details: Avena fatua, post-emergence, Postemergence, scale 0 to 100, read-out: Plant response rating, Oat, Wild
Method in brief: as §1

[10] = system: johnsongrass (Sorghum halepense); experiment: Test C postemergence; details: Sorghum halepense, post-emergence, 336 h, Postemergence, scale 0 to 100, read-out: Plant response rating, Johnsongrass
Method in brief: as §1

[11] = system: velvetleaf (Abutilon theophrasti); experiment: Test C postemergence; details: Abutilon theophrasti, post-emergence, Postemergence, scale 0 to 100, read-out: Plant response rating, Velvetleaf
Method in brief: as §1

[12] = system: yellow nutsedge (Cyperus esculentus); experiment: Test C postemergence; details: Cyperus, post-emergence, 336 h, Postemergence, scale 0 to 100, read-out: Plant response rating, Nutsedge, Yellow
Method in brief: as §1

[13] = system: Italian ryegrass (Lolium multiflorum); experiment: Test C postemergence; details: Lolium multiflorum, post-emergence, 336 h, Postemergence, scale 0 to 100, read-out: Plant response rating, Ryegrass, Italian
Method in brief: as §1

[14] = system: giant foxtail (Setaria faberii); experiment: Test C postemergence; details: Setaria faberi, post-emergence, 336 h, Postemergence, scale 0 to 100, read-out: Plant response rating, Foxtail, Giant
Method in brief: as §1

soybean (Glycine max) = experiment: Test C postemergence; details: Glycine max, post-emergence, Postemergence, scale 0 to 100, read-out: Plant response rating, Soybean
Method in brief: as §1

[15] = system: oilseed rape (Brassica napus); experiment: Test C postemergence; details: Brassica napus, post-emergence, Postemergence, scale 0 to 100, read-out: Plant response rating, Oilseed Rape
Method in brief: as §1

[16] = system: morningglory (Ipomoea coccinea); experiment: Test C postemergence; details: Ipomoea, post-emergence, 336 h, Postemergence, scale 0 to 100, read-out: Plant response rating, Morningglory
Method in brief: as §1

[17] = system: galium (catchweed bedstraw, Galium aparine); experiment: Test C postemergence; details: Galium, post-emergence, 336 h, Postemergence, scale 0 to 100, read-out: Plant response rating, Galium
Method in brief: as §1

[18] = system: winter wheat (Triticum aestivum); experiment: Test C postemergence; details: Triticum aestivum, post-emergence, 336 h, Postemergence, scale 0 to 100, read-out: Plant response rating, Wheat
Method in brief: as §1

## Fc1ccc(F)c(Oc2ncc(Cl)cn2)c1Oc1ncc(Cl)cn1 [Compound 34, 2,2′-[(3,6-difluoro-1,2-phenylene)bis(oxy)]bis[5-chloropyrimidine]]
[1]; 31 g ai/ha, preemergence
  pest or weed control at 31 g/ha: 0%
[1]; 62 g ai/ha, preemergence
  pest or weed control at 62 g/ha: 60%
[1]; 125 g ai/ha, preemergence
  pest or weed control at 125 g/ha: 70%
[1]; Preemergence, 16 g ai/ha
  pest or weed control at 16 g/ha: 0%
[2]; 31 g ai/ha, preemergence
  pest or weed control at 31 g/ha: 0%
[2]; 62 g ai/ha, preemergence
  pest or weed control at 62 g/ha: 0%
[2]; 125 g ai/ha, preemergence
  pest or weed control at 125 g/ha: 5%
[2]; Preemergence, 16 g ai/ha
  pest or weed control at 16 g/ha: 0%
[3]; 31 g ai/ha, preemergence
  plant injury at 31 g/ha: 90%
[3]; 62 g ai/ha, preemergence
  plant injury at 62 g/ha: 90%
[3]; 125 g ai/ha, preemergence
  plant injury at 125 g/ha: 90%
[3]; Preemergence, 16 g ai/ha
  plant injury at 16 g/ha: 30%
[4]; 16 g ai/ha
  pest or weed control at 16 g/ha: 5%
[4]; 31 g ai/ha
  pest or weed control at 31 g/ha: 5%
[4]; 62 g ai/ha
  pest or weed control at 62 g/ha: 10%
[4]; 125 g ai/ha
  pest or weed control at 125 g/ha: 10%
[5]; 16 g ai/ha
  pest or weed control at 16 g/ha: 0%
[5]; 31 g ai/ha
  pest or weed control at 31 g/ha: 0%
[5]; 62 g ai/ha
  pest or weed control at 62 g/ha: 5%
[5]; 125 g ai/ha
  pest or weed control at 125 g/ha: 5%
[6]; 16 g ai/ha
  pest or weed control at 16 g/ha: 0%
[6]; 31 g ai/ha
  pest or weed control at 31 g/ha: 0%
[6]; 62 g ai/ha
  pest or weed control at 62 g/ha: 0%
[6]; 125 g ai/ha
  pest or weed control at 125 g/ha: 5%
[7]; 16 g ai/ha
  pest or weed control at 16 g/ha: 50%
[7]; 31 g ai/ha
  pest or weed control at 31 g/ha: 50%
[7]; 62 g ai/ha
  pest or weed control at 62 g/ha: 80%
[7]; 125 g ai/ha
  pest or weed control at 125 g/ha: 95%
[8]; 16 g ai/ha
  pest or weed control at 16 g/ha: 55%
[8]; 31 g ai/ha
  pest or weed control at 31 g/ha: 75%
[8]; 62 g ai/ha
  pest or weed control at 62 g/ha: 70%
[8]; 125 g ai/ha
  pest or weed control at 125 g/ha: 80%
Corn (Zea mays); 16 g ai/ha
  Corn plant response rating (crop injury, 0 = no effect, 100 = complete kill) at 16 g/ha: 5%
Corn (Zea mays); 31 g ai/ha
  Corn plant response rating (crop injury, 0 = no effect, 100 = complete kill) at 31 g/ha: 5%
Corn (Zea mays); 62 g ai/ha
  Corn plant response rating (crop injury, 0 = no effect, 100 = complete kill) at 62 g/ha: 5%
Corn (Zea mays); 125 g ai/ha
  Corn plant response rating (crop injury, 0 = no effect, 100 = complete kill) at 125 g/ha: 5%
Kochia (Kochia scoparia); 16 g ai/ha
  pest or weed control at 16 g/ha: 60%
Kochia (Kochia scoparia); 31 g ai/ha
  pest or weed control at 31 g/ha: 60%
Kochia (Kochia scoparia); 62 g ai/ha
  pest or weed control at 62 g/ha: 90%
Kochia (Kochia scoparia); 125 g ai/ha
  pest or weed control at 125 g/ha: 90%
[9]; 31 g ai/ha
  pest or weed control at 31 g/ha: 50%
[9]; 62 g ai/ha
  pest or weed control at 62 g/ha: 60%
[9]; 125 g ai/ha
  pest or weed control at 125 g/ha: 60%
Wild oat (Avena fatua); 31 g ai/ha
  pest or weed control at 31 g/ha: 0%
Wild oat (Avena fatua); 62 g ai/ha
  pest or weed control at 62 g/ha: 5%
Wild oat (Avena fatua); 125 g ai/ha
  pest or weed control at 125 g/ha: 10%
[10]; 16 g ai/ha
  pest or weed control at 16 g/ha: 5%
[10]; 31 g ai/ha
  pest or weed control at 31 g/ha: 5%
[10]; 62 g ai/ha
  pest or weed control at 62 g/ha: 10%
[10]; 125 g ai/ha
  pest or weed control at 125 g/ha: 10%
[11]; 31 g ai/ha
  pest or weed control at 31 g/ha: 60%
[11]; 62 g ai/ha
  pest or weed control at 62 g/ha: 60%
[11]; 125 g ai/ha
  pest or weed control at 125 g/ha: 65%
[12]; 31 g ai/ha
  pest or weed control at 31 g/ha: 10%
[12]; 62 g ai/ha
  pest or weed control at 62 g/ha: 10%
[12]; 125 g ai/ha
  pest or weed control at 125 g/ha: 10%
[13]; 31 g ai/ha
  pest or weed control at 31 g/ha: 0%
[13]; 62 g ai/ha
  pest or weed control at 62 g/ha: 0%
[13]; 125 g ai/ha
  pest or weed control at 125 g/ha: 0%
[14]; 16 g ai/ha
  pest or weed control at 16 g/ha: 5%
[14]; 31 g ai/ha
  pest or weed control at 31 g/ha: 5%
[14]; 62 g ai/ha
  pest or weed control at 62 g/ha: 5%
[14]; 125 g ai/ha
  pest or weed control at 125 g/ha: 25%
Soybean (Glycine max); 31 g ai/ha
  plant injury at 31 g/ha: 70%
Soybean (Glycine max); 62 g ai/ha
  plant injury at 62 g/ha: 85%
Soybean (Glycine max); 125 g ai/ha
  plant injury at 125 g/ha: 40%
[15]; 31 g ai/ha
  plant injury at 31 g/ha: 50%
[15]; 62 g ai/ha
  plant injury at 62 g/ha: 70%
[15]; 125 g ai/ha
  plant injury at 125 g/ha: 70%
[16]; 31 g ai/ha
  pest or weed control at 31 g/ha: 95%
[16]; 62 g ai/ha
  pest or weed control at 62 g/ha: 90%
[16]; 125 g ai/ha
  pest or weed control at 125 g/ha: 95%
[17]; 16 g ai/ha
  pest or weed control at 16 g/ha: 80%
[17]; 31 g ai/ha
  pest or weed control at 31 g/ha: 80%
[17]; 62 g ai/ha
  pest or weed control at 62 g/ha: 85%
[17]; 125 g ai/ha
  pest or weed control at 125 g/ha: 85%
[18]; 31 g ai/ha
  plant injury at 31 g/ha: 0%
[18]; 62 g ai/ha
  plant injury at 62 g/ha: 0%
[18]; 125 g ai/ha
  plant injury at 125 g/ha: 0%
